Where two headings read alike, the source gives them in different places.
Experiments:
[1] = target: Tyro3 (Homo sapiens (Human), UniProt Q06418); experiment: Microfluidic Capillary Electrophoresis (MCE) kinase activity assay, Tyro3; type: biochemical
[2] = target: Mer (Homo sapiens (Human), UniProt Q12866); experiment: Microfluidic Capillary Electrophoresis (MCE) kinase activity assay, Mer; type: biochemical
[3] = MCE assay, Tyro 10 nM, ATP 21 uM (at Km), 1.0 μM fluorescent substrate, 180 min incubation
[4] = MCE assay, Mer 2.0 nM, ATP 5.0 uM (at Km), 1.0 μM fluorescent substrate, 180 min incubation

Mer, sequence (Q12866 21-999): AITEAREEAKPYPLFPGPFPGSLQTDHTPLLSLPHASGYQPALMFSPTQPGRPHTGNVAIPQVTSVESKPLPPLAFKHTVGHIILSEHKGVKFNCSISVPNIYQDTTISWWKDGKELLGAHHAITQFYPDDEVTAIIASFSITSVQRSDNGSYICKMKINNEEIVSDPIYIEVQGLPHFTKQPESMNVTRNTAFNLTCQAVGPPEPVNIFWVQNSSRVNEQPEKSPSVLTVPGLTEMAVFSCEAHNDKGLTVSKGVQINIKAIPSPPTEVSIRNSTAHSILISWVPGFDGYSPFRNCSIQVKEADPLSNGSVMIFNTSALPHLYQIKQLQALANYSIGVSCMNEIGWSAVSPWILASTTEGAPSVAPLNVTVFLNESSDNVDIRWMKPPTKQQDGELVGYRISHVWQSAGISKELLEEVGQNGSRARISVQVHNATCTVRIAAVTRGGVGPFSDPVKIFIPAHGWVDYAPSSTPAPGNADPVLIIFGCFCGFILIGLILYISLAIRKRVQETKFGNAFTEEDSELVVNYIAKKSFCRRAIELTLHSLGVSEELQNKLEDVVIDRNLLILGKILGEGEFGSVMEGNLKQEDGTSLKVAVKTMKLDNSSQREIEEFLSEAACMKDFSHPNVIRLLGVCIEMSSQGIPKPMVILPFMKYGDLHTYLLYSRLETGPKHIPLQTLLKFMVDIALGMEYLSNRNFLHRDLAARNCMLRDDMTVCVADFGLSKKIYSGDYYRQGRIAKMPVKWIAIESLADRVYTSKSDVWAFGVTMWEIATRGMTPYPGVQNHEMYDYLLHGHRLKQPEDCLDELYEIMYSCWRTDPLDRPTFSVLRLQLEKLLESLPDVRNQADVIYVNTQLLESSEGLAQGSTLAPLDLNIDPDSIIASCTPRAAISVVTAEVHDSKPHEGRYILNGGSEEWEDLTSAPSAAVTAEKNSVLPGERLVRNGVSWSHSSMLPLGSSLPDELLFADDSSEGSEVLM
Tyro3, sequence (Q06418 41-890): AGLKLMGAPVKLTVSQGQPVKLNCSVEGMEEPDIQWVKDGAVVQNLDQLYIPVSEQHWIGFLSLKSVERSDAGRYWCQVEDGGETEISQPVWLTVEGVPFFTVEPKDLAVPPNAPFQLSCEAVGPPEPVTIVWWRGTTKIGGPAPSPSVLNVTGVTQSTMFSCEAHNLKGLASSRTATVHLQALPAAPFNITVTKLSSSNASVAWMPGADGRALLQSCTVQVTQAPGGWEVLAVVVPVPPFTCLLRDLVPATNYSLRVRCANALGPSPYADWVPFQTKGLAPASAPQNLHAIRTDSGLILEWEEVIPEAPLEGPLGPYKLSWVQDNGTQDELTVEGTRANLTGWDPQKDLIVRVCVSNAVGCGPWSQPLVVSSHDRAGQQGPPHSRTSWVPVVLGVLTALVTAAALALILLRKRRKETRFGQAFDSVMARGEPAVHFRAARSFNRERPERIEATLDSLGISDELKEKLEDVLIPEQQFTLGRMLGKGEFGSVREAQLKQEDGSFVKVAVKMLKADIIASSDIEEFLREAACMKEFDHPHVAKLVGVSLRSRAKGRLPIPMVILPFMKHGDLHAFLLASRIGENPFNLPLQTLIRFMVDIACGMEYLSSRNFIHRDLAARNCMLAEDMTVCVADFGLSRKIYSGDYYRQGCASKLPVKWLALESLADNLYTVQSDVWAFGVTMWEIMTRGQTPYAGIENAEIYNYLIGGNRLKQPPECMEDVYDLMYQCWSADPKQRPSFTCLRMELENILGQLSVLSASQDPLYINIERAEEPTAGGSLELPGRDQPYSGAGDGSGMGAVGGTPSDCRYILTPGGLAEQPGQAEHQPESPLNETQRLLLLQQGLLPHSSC

O[C@H]1CC[C@H](Nc2nc(Nc3ccnc(C4CC4)c3)ncc2C2CCNCC2)CC1 [Compound 41]
IC50 [1]: 10 to 100 nM | IC50 [2]: 10 to 100 nM

COc1cc(Nc2ncc(C3CCN(C4CCCC4)CC3)c(N[C@H]3CC[C@H](NC(C)=O)CC3)n2)ccn1 [Compound 22]
IC50 [1]: 1000 to 30000 nM | IC50 [2]: 100 to 1000 nM

O[C@H]1CC[C@H](Nc2nc(Nc3ccnc(C(F)(F)F)c3)ncc2C2CCN(CC3CCCC3)CC2)CC1 [Compound 17]
IC50 [1]: 10 to 100 nM | IC50 [2]: 10 to 100 nM

COc1cc(Nc2ncc(C3CCN(C4CCCC4)CC3)c(N[C@H]3CC[C@H](N(C)C)CC3)n2)ccn1 [Compound 24]
IC50 [1]: 100 to 1000 nM | IC50 [2]: 10 to 100 nM

O[C@H]1CC[C@H](Nc2nc(Nc3ccnc(Cl)c3)ncc2C2CCN(CC3CCCC3)CC2)CC1 [Compound 16]
IC50 [1, 3]: < 10 nM | IC50 [2, 4]: < 10 nM

N#Cc1cc(Nc2ncc(C3CCN(CC4CCC(F)(F)CC4)CC3)c(N[C@H]3CC[C@H](O)CC3)n2)ccn1 [Compound 56]
IC50 [1]: 10 to 100 nM | IC50 [2, 4]: < 10 nM

O[C@H]1CC[C@H](Nc2nc(Nc3ccnc(Cl)c3)ncc2C2CCN(c3ccccc3)CC2)CC1 [Compound 47, trans-4-((2-((2-Chloropyridin-4-yl)amino)-5-(1-phenylpiperidin-4-yl)pyrimidin-4-yl)amino)cyclohexan-1-ol]
IC50 [1]: 10 to 100 nM | IC50 [2]: 10 to 100 nM

CC(F)(F)c1cc(Nc2ncc(C3CCN(CC4CCCC4)CC3)c(N[C@H]3CC[C@H](O)CC3)n2)ccn1 [Compound 18]
IC50 [1, 3]: < 10 nM | IC50 [2, 4]: < 10 nM

COc1cc(Nc2ncc(C3CCN(C(=O)OC(C)(C)C)CC3)c(N[C@H]3CC[C@H](O)CC3)n2)ccn1 [Compound 2]
IC50 [1]: 10 to 100 nM | IC50 [2]: 10 to 100 nM

Cc1cc(Nc2ncc(C3CCN(CC4CCCC4)CC3)c(N[C@H]3CC[C@H](O)CC3)n2)ccn1 [Compound 15]
IC50 [1]: 10 to 100 nM | IC50 [2, 4]: < 10 nM

NC(=O)c1cc(Nc2ncc(C3CCN(CC4CCCC4)CC3)c(N[C@H]3CC[C@H](O)CC3)n2)ccn1 [Compound 20]
IC50 [1]: 10 to 100 nM | IC50 [2, 4]: < 10 nM

O[C@H]1CC[C@H](Nc2nc(Nc3ccnc(Cl)c3)ncc2C2CCN(CC3CCC(F)(F)CC3)CC2)CC1 [Compound 30]
IC50 [1, 3]: < 10 nM | IC50 [2, 4]: < 10 nM

COc1cc(Nc2ncc(C3CCN(C4CCCC4)CC3)c(N[C@H]3CC[C@H](N)CC3)n2)ccn1 [Compound 23]
IC50 [1]: 10 to 100 nM | IC50 [2, 4]: < 10 nM

COc1cccc(Nc2ncc(C3CCN(CC4CCCC4)CC3)c(N[C@H]3CC[C@H](O)CC3)n2)c1 [Compound 4, trans-4-((5-(1-(cyclopentylmethyl)piperidin-4-yl)-2-((3-methoxyphenyl)amino)pyrimidin-4-yl)amino)cyclohexan-1-ol]
IC50 [1]: 10 to 100 nM | IC50 [2, 4]: < 10 nM

O[C@H]1CC[C@H](Nc2nc(Nc3ccnc(C(F)(F)F)c3)ncc2C2CCN(C3CCCC3)CC2)CC1 [Compound 13]
IC50 [1]: 10 to 100 nM | IC50 [2]: < 10 nM

O[C@H]1CC[C@H](Nc2nc(Nc3ccnc(Cl)c3)ncc2C2CCNCC2)CC1 [Compound 9]
IC50 [1]: 10 to 100 nM | IC50 [2]: 10 to 100 nM

Cc1cc(Nc2ncc(C3CCNCC3)c(N[C@H]3CC[C@H](O)CC3)n2)cc(C)n1 [Compound 10]
IC50 [1]: 10 to 100 nM | IC50 [2]: 1000 to 30000 nM

COc1cc(Nc2ncc(C3CCN(C)CC3)c(N[C@H]3CC[C@H](O)CC3)n2)ccn1 [Compound 6]
IC50 [1]: 10 to 100 nM | IC50 [2]: 10 to 100 nM

N#Cc1cc(Nc2ncc(C3CCN(CC4CCCC4)CC3)c(N[C@H]3CC[C@H](O)CC3)n2)ccn1 [Compound 55]
IC50 [1]: 10 to 100 nM | IC50 [2, 4]: < 10 nM

CN1CCN(c2cc(Nc3ncc(C4CCNCC4)c(N[C@H]4CC[C@H](O)CC4)n3)ccn2)CC1 [Compound 44]
IC50 [1]: 100 to 1000 nM | IC50 [2]: 10 to 100 nM

O[C@H]1CC[C@H](Nc2nc(Nc3ccnc(Cl)c3)ncc2C2CCN(Cc3ccccc3)CC2)CC1 [Compound 32]
IC50 [1]: 10 to 100 nM | IC50 [2, 4]: < 10 nM

NC(=O)c1cc(Nc2ncc(C3CCN(C4CCCC4)CC3)c(N[C@H]3CC[C@H](O)CC3)n2)ccn1 [Compound 14]
IC50 [1]: 10 to 100 nM | IC50 [2]: 10 to 100 nM

COc1cccc(Nc2ncc(C3CCN(C(=O)C4CCCC4)CC3)c(N[C@H]3CC[C@H](O)CC3)n2)c1 [Compound 1, cyclopentyl(4-(4-((trans-4-hydroxycyclohexyl)amino)-2-((3-methoxyphenyl)amino)pyrimidin-5-yl)piperidin-1-yl)methanone]
IC50 [1]: 100 to 1000 nM | IC50 [2]: 100 to 1000 nM

Cc1cc(Nc2ncc(C3CCN(C4CCCC4)CC3)c(N[C@H]3CC[C@H](O)CC3)n2)ccn1 [Compound 11, trans-4-((5-(1-cyclopentylpiperidin-4-yl)-2-((2-methylpyridin-4-yl)amino)pyrimidin-4-yl)amino)cyclohexan-1-ol]
IC50 [1]: 10 to 100 nM | IC50 [2, 4]: < 10 nM

O[C@H]1CC[C@H](Nc2nc(Nc3ccnc(Cl)c3)ncc2C2CCN(CC3CC3)CC2)CC1 [Compound 46]
IC50 [1, 3]: < 10 nM | IC50 [2, 4]: < 10 nM

CC1(C)CC(N2CCC(c3cnc(Nc4ccnc(Cl)c4)nc3N[C@H]3CC[C@H](O)CC3)CC2)C1 [Compound 48]
IC50 [1, 3]: < 10 nM | IC50 [2, 4]: < 10 nM

COc1cc(Nc2ncc(C3CCN(C4CCCC4)CC3)c(N[C@H]3CC[C@H](O)CC3)n2)ccn1 [Compound 25]
IC50 [1]: 10 to 100 nM | IC50 [2, 4]: < 10 nM

O[C@H]1CC[C@H](Nc2nc(Nc3ccnc(N4CCCC4)c3)ncc2C2CCNCC2)CC1 [Compound 43]
IC50 [1]: 1000 to 30000 nM | IC50 [2]: 100 to 1000 nM

O[C@H]1CC[C@H](Nc2nc(Nc3ccnc(Cl)c3)ncc2C2CCN(CC3COC3)CC2)CC1 [Compound 28]
IC50 [1]: 10 to 100 nM | IC50 [2]: 10 to 100 nM

COc1cc(Nc2ncc(C3CCN(C(=O)C4CCCC4)CC3)c(N[C@H]3CC[C@H](O)CC3)n2)ccn1 [Compound 26, Cyclopentyl(4-(4-((trans-4-hydroxycyclohexyl)amino)-2-((2-methoxypyridin-4-yl)amino)pyrimidin-5-yl)piperidin-1-yl)methanone]
IC50 [1]: 10 to 100 nM | IC50 [2]: 10 to 100 nM

Cc1cc(CN2CCC(c3cnc(Nc4ccnc(Cl)c4)nc3N[C@H]3CC[C@H](O)CC3)CC2)no1 [Compound 31]
IC50 [1]: 10 to 100 nM | IC50 [2, 4]: < 10 nM

COc1cc(Nc2ncc(C3CCNCC3)c(N[C@H]3CC[C@H](NC(C)=O)CC3)n2)ccn1 [Compound 21]
IC50 [1]: 10 to 100 nM | IC50 [2]: 10 to 100 nM

O[C@H]1CC[C@H](Nc2nc(Nc3ccnc(N4CCCCC4)c3)ncc2C2CCNCC2)CC1 [Compound 45]
IC50 [1]: 1000 to 30000 nM | IC50 [2]: 1000 to 30000 nM

Cc1cc(Nc2ncc(C3CCNCC3)c(N[C@H]3CC[C@H](O)CC3)n2)ccn1 [Compound 8]
IC50 [1]: 10 to 100 nM | IC50 [2]: 10 to 100 nM

CN1CCC(CN2CCC(c3cnc(Nc4ccnc(Cl)c4)nc3N[C@H]3CC[C@H](O)CC3)CC2)CC1 [Compound 29]
IC50 [1]: 10 to 100 nM | IC50 [2]: 10 to 100 nM

O[C@H]1CC[C@H](Nc2nc(Nc3ccnc(F)c3)ncc2C2CCNCC2)CC1 [Compound 37]
IC50 [1]: 10 to 100 nM | IC50 [2, 4]: < 10 nM

O[C@H]1CC[C@H](Nc2nc(Nc3ccnc(Cl)c3)ncc2C2CCN(C3CC(C4CC4)C3)CC2)CC1 (stereo partly drawn) [Compound 49]
IC50 [1, 3]: < 10 nM | IC50 [2, 4]: < 10 nM

O[C@H]1CC[C@H](Nc2nc(Nc3ccnc(Cl)c3)ncc2C2CCN(CC3CCOCC3)CC2)CC1 [Compound 34]
IC50 [1]: 10 to 100 nM | IC50 [2, 4]: < 10 nM

O[C@H]1CC[C@H](Nc2nc(Nc3ccnc(Cl)c3)ncc2C2CCN(C3CCCC3)CC2)CC1 [Compound 12]
IC50 [1, 3]: < 10 nM | IC50 [2, 4]: < 10 nM

Cc1cc(Nc2ncc(C3CCN(CC4CCCC4)CC3)c(N[C@H]3CC[C@H](O)CC3)n2)cc(C)n1 [Compound 19]
IC50 [1]: 10 to 100 nM | IC50 [2]: 100 to 1000 nM

O[C@H]1CC[C@H](Nc2nc(Nc3ccnc(Cl)c3)ncc2C2CCN(CC3CCC3)CC2)CC1 [Compound 33]
IC50 [1, 3]: < 10 nM | IC50 [2, 4]: < 10 nM

COc1cc(Nc2ncc(C3CCN(CC4CCCC4)CC3)c(N[C@H]3CC[C@H](O)CC3)n2)ccn1 [Compound 5]
IC50 [1]: 10 to 100 nM | IC50 [2, 4]: < 10 nM
